# Tested on: adult human white matter progenitor cells (WMPCs)
# Assay: Tyrosine phosphatase inhibition: oligodendrocyte differentiation of cultured WMPCs (A2B5/O4/BrdU immunocytochemistry)
# Format: cell-based
# Experimental: WMPCs were distributed onto 12-well plates coated with poly-L-ornithine and fibronectin at 5×10^4 cells/ml in DMEM/F12/N1 supplemented with 10 ng/ml bFGF (Sigma), 10 ng/ml PDGF-AA (Sigma), and 2 ng/ml NT3 (R&D Systems). Stock solutions of 1 μM bpV(phen) (potassium bisperoxo (1,10-phenanthroline) oxovanadate (V); Calbiochem) were prepared before each use. Cells were exposed to concentrations of 0, 1, 5, 10, and 25 ng/ml of bV(phen) immediately upon plating, and every 2 days thereafter for 7 day in vitro.
# Cultures were exposed continuously to 10 μg/ml BrdU beginning 24 hours before fixation. After 7 days in vitro, A2B5 and O4 were immunolabeled as previously described (Roy et al., “Identification, Isolation, and Promoter-defined Separation of Mitotic Oligodendrocyte Progenitor Cells from the Adult Human Subcortical White Matter,” J. Neurosci 19:9986-95 (1999), which is hereby incorporated by reference in its entirety). For multiple antigen labeling, O4 and A2B5 were localized on live cells that were then fixed with 4% paraformaldehyde and immunostained for BrdU. O4 supernatant was used at a dilution of 1:100 and monoclonal antibody A2B5 supernatant (clone 105, American Type Culture Collection) was used in a 1:1 ratio with DMEM/F12/N, both for 40 minutes at 4° C. Rat anti-BrdU antibody (Harlan) was used at a dilution of 1:200. Fixed cultures were counterstained with DAPI (10 ng ml; Molecular Probes). The number of A2B5 and O4 stained and unstained cells were counted in 10 randomly chosen fields at each dosage level, from individual replicate samples (n=4). Statistical significance was assessed by one-way repeated measures analysis of variance (ANOVA), followed by Tukey's multiple comparisons test (GraphPad Prism 3.0, p<0.05).
# Due to the high expression of the tyrosine phosphatase receptor RTPβ/ζ in WMPCs, the effect of tyrosine phosphatase inhibition on the differentiation of WMPCs was assessed. bpV(phen), a known potent inhibitor of tyrosine phosphatase activity, was used to induce inhibition (Posner et al., “Peroxovanadium Compounds. A New Class of Potent Phosphotyrosine Phosphatase Inhibitors Which Are Insulin Mimetics,” J Biol Chem 269: 4596-4604 (1994); Bevan et al., “Selective Activation of the Rat Hepatic Endosomal Insulin Receptor Kinase. Role for the Endosome in Insulin Signaling,” J Biol Chem 270: 10784-10791 (1995); Faure et al., “Arrest at The G2/M Transition of the Cell Cycle by Protein-Tyrosine Phosphatase Inhibition Studies on a Neuronal and a Glial Cell Line,” J Cell Biochem 59: 389-401 (1995), which are hereby incorporated by reference in their entirety). […] Statistical significance was first detected at 1 ng/ml bpV(phen) in the A2B5 positive population and 10 ng ml bpV(phen) in the O4 positive population. The O4/A2B5 ratio rose drastically from under 10 percent to 70 percent in response to 25 ng/ml treatment with bpV(phen) (FIG. 1E).
# [1] = 7 days in vitro, doses 0, 1, 5, 10, 25 ng/ml
# [2] = between dosage levels 0-25 ng/ml, 7 days in vitro
structure (smiles),measurement,setting,value
"O.O.O.OO.OO.[K+].[OH-].[V].c1cnc2c(c1)ccc1cccnc12 [bpV(phen), potassium bisperoxo (1,10-phenanthroline) oxovanadate (V)]",percentage of O4+ cells,"25 ng ml, 7 days in vitro, n=4 patients, untreated 20±8.4%",54±17.6%
same,percentage of progenitor A2B5+ cells,"25 ng/ml, 7 days in vitro, n=4 patients, untreated 15±2.2%",4±0.5%
same,O4/A2B5 ratio,"25 ng/ml, 7 days in vitro, untreated under 10 percent",70%
same,"concentration at which statistical significance was first detected, A2B5 positive population",[1],1 ng/mL
same,"concentration at which statistical significance was first detected, O4 positive population",[1],10 ng·mL
same,effect on WMPC expansion and differentiation,WMPCs exposed to the RTP inhibitor,ceased expansion and differentiated as oligodendrocytes
same,number of A2B5+ BrdU+ cells,[2],unchanged
same,total cell number,[2],unchanged
